{"source": "patent US20260007681A1", "about": "“INDOLE DERIVATIVES AS ESTROGEN RECEPTOR DEGRADERS” (REGENTS OF THE UNIVERSITY OF MICHIGAN, priority 2022, published 2026)", "key": {"[1]": {"molecular_target": "ER in MCF-7 cells (Homo sapiens (Human), UniProt P03372)", "sequence (P03372 whole entry)": "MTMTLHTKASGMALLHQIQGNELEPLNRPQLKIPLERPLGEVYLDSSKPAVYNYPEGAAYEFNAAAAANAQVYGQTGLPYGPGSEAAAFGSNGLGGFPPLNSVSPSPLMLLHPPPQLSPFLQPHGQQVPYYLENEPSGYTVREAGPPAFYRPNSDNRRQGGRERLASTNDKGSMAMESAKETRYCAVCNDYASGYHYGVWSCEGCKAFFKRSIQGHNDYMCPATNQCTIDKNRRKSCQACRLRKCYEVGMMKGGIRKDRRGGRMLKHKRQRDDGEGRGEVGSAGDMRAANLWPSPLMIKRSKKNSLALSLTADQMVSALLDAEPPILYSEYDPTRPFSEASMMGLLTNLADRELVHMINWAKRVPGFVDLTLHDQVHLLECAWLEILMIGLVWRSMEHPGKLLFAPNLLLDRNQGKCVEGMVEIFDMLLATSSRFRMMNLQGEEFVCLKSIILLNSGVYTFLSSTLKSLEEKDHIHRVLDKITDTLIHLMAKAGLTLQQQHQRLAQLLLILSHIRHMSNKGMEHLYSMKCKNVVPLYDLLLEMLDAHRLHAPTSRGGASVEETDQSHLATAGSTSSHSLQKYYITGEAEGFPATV", "test": "In-cell western (ICW) ER degradation assay in MCF-7 cells (Compounds A1-A70)", "format": "cell-based", "conditions": "MCF-7 cells, 16 hrs treatment; for DC50: ER degradation, 0.02 to 300 nM, read-out: MCF7 ICW DC50; for Dmax: MCF7, maximal ER degradation, read-out: MCF7 ICW Dmax (%)", "description": "(§1) ERa degradative activity of compounds can be assessed in MCF-7 and T47D Cells. MCF-7 and T47D cell are seeded and are subsequently treated with the compounds at certain concentrations (e.g., 0.02 to 300 nM). DMSO can be used as vehicle control. Cells are fixed and are blocked with Intercept (PBS) Blocking Buffer (e.g., Li—COR, Odyssey Blocking Buffer), and are stained with ER (e.g., 1:500, Cell signaling) primary antibody for overnight at cold room. Secondary Antibody (e.g., IRDye 800CW Goat anti-Rabbit IgG) and CellTag 700 Stain are added in Intercept (PBS) Blocking Buffer. Finally, cell plate is placed in incubator to dry. Image and signal are captured on Odyssey® DLx Imaging System.\n(§2) Day 3: After 16 hrs of compounds treatment, cells were fixed by 4% PFA and permeabilized with elution buffer (0.1% Triton X-100 in 1% PBS Solution). Subsequently, cells were blocked with Intercept (PBS) Blocking Buffer (Li—COR, Odyssey Blocking Buffer), and were stained with ER (1:500, Cell signaling) primary antibody for overnight at cold room.\n(§3) Day 4: Remove the buffer, add IRDye 800CW Goat anti-Rabbit IgG Secondary Antibody (1:2000) and CellTag 700 Stain (1:500) in Intercept (PBS) Blocking Buffer. Finally, cell plate is placed in incubator to dry. Image and signal were captured on Odyssey® DLx Imaging System."}, "[2]": {"molecular_target": "CRBN/DDB1 (Homo sapiens (Human), UniProt Q96SW2)", "sequence (Q96SW2 whole entry)": "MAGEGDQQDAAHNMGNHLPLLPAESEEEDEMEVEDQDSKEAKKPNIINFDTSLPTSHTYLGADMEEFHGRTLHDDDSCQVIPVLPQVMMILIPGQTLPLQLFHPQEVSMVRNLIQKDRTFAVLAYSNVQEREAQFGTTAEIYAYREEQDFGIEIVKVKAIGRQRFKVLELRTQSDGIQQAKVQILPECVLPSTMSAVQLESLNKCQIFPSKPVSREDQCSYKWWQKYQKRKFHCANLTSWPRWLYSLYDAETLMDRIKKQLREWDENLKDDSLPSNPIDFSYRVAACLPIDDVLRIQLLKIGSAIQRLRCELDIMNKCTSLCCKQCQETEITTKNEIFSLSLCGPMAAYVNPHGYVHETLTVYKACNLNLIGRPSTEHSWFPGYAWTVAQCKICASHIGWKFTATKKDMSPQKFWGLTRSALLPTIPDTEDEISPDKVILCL", "sequence (Q16531 whole entry partner)": "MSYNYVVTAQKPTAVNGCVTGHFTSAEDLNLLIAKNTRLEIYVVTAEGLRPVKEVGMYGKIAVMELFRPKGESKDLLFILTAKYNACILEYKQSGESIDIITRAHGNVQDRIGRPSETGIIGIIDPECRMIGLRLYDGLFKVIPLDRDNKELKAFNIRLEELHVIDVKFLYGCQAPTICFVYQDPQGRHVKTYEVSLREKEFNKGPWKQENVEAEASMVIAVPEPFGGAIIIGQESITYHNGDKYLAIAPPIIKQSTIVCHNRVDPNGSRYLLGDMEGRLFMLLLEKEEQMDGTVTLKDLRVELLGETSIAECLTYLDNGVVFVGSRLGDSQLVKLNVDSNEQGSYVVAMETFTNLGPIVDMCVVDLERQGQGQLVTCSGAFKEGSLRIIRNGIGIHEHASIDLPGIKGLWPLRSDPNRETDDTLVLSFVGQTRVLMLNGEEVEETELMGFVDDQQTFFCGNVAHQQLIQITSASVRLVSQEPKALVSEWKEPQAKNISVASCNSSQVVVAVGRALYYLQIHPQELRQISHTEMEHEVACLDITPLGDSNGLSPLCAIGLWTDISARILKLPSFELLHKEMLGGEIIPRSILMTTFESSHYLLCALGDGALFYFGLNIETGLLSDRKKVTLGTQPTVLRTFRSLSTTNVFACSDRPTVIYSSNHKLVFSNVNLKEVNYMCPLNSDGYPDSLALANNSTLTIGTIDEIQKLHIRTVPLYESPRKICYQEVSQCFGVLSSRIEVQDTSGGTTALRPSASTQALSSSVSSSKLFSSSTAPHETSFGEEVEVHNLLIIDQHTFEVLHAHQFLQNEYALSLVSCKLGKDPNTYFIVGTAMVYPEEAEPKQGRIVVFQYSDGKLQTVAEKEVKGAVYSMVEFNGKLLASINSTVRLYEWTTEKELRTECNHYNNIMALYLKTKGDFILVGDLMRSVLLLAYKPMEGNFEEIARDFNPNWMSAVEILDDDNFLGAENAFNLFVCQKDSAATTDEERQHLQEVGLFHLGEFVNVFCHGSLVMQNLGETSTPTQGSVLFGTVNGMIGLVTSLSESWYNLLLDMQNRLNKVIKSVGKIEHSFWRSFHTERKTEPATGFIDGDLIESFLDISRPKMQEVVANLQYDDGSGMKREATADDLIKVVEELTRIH", "format": "binding", "conditions": "His tagged CRBN+DDB-DLS7+CXU4, Cy5-labeled Thalidomide probe, one hour incubation; read-out: CRBN HTRF IC50", "description": "The binding potency was determined using H-TRF assay technology (Perkin Elmer). Compounds were serially diluted in DMSO and 0.2 μL volume was transferred to white 384-well plate."}, "[3]": {"molecular_target": "ER in T47D cells (Homo sapiens (Human), UniProt P03372)", "sequence (P03372 whole entry)": "as the sequence (P03372 whole entry) above", "test": "In-cell western (ICW) ER degradation assay in T47D cells (Compounds A1-A70)", "format": "cell-based", "conditions": "T47D cells, 16 hrs treatment; for DC50: ER degradation, 0.02 to 300 nM; for Dmax: T47D, maximal ER degradation, read-out: T47D ICW Dmax (%)", "description": "as §1, §2, §3"}}}
{"smiles": "C[C@@H]1Cc2c([nH]c3ccccc23)[C@@H](c2cnc(N3CCC(CN4CCN5c6ccc7c(c6OC[C@@H]5C4)CN(C4CCC(=O)NC4=O)C7=O)CC3)nc2)N1CC(F)F", "note": "(stereo partly drawn) [Compound A5, 3-((S)-7-((1-(5-((1R,3R)-2-(2,2-difluoroethyl)-3-methyl-2,3,4,9-tetrahydro-1H-pyrido[3,4-b]indol-1-yl)pyrimidin-2-yl)piperidin-4-yl)methyl)-1-oxo-1,3,5,5a,6,7,8,9-octahydro-2H-pyrazino[1′,2′:4,5]oxazino[2,3-e]isoindol-2-yl)piperidine-2,6-dione]", "values": [{"measurement": "DC50", "setting": "[1]", "result": "1 to 10", "unit": "nM"}, {"measurement": "Dmax", "setting": "[1]", "result": "50 to 75", "unit": "%"}, {"measurement": "IC50", "setting": "[2]", "result": "50 to 500", "unit": "nM"}]}
{"smiles": "C[C@@H]1Cc2c([nH]c3ccccc23)[C@@H](c2cnc(N3CCC4(CCC(CN5CCN6c7cc8c(cc7OC[C@@H]6C5)C(=O)N([C@H]5CCC(=O)NC5=O)C8)CC4)CC3)nc2)N1CC(C)(C)F", "note": "[Compound A9, (S)-3-((S)-3-((3-(5-((1R,3R)-2-(2-fluoro-2-methylpropyl)-3-methyl-2,3,4,9-tetrahydro-1H-pyrido[3,4-b]indol-1-yl)pyrimidin-2-yl)-3-azaspiro[5.5]undecan-9-yl)methyl)-8-oxo-1,2,3,4,4a,5,8,10-octahydro-9H-pyrazino[1′,2′:4,5][1,4]oxazino[2,3-f]isoindol-9-yl)piperidine-2,6-dione]", "values": [{"measurement": "DC50", "setting": "[1]", "result": "< 1", "unit": "nM"}, {"measurement": "Dmax", "setting": "[1]", "result": "25 to 50", "unit": "%"}, {"measurement": "IC50", "setting": "[2]", "result": "> 5000", "unit": "nM"}]}
{"smiles": "C[C@@H]1Cc2c([nH]c3ccccc23)[C@@H](c2ccc(N3CCC4(CC3)CC(CN3CCN5c6cc7c(cc6OC[C@@H]5C3)C(=O)N([C@H]3CCC(=O)NC3=O)C7)C4)nc2)N1CC(F)F", "note": "[Compound A11, (S)-3-((S)-3-((7-(5-((1R,3R)-2-(2,2-difluoroethyl)-3-methyl-2,3,4,9-tetrahydro-1H-pyrido[3,4-b]indol-1-yl)pyridin-2-yl)-7-azaspiro[3.5]nonan-2-yl)methyl)-8-oxo-1,2,3,4,4a,5,8,10-octahydro-9H-pyrazino[1′,2′:4,5][1,4]oxazino[2,3-f]isoindol-9-yl)piperidine-2,6-dione]", "values": [{"measurement": "DC50", "setting": "[1]", "result": "1 to 10", "unit": "nM"}, {"measurement": "Dmax", "setting": "[1]", "result": "50 to 75", "unit": "%"}, {"measurement": "IC50", "setting": "[2]", "result": "500 to 5000", "unit": "nM"}]}
{"smiles": "C[C@@H]1Cc2c([nH]c3ccccc23)[C@@H](c2cnc(N3CCC4(CC3)CC(CN3CCN(c5ccc(NC6CCC(=O)NC6=O)cc5F)CC3)C4)nc2)N1CC(F)F", "note": "(stereo partly drawn) [Compound A16, 3-((4-(4-((7-(5-((1R,3R)-2-(2,2-difluoroethyl)-3-methyl-2,3,4,9-tetrahydro-1H-pyrido[3,4-b]indol-1-yl)pyrimidin-2-yl)-7-azaspiro[3.5]nonan-2-yl)methyl)piperazin-1-yl)-3-fluorophenyl)amino)piperidine-2,6-dione]", "values": [{"measurement": "IC50", "setting": "[2]", "result": "50 to 500", "unit": "nM"}]}
{"smiles": "CS(=O)(=O)N1CCc2c([nH]c3ccccc23)[C@H]1c1c(F)cc(N2CCC(CN3CCN4c5cc6c(cc5OC[C@@H]4C3)C(=O)N([C@H]3CCC(=O)NC3=O)C6)CC2)cc1F", "note": "[Compound A17, (S)-3-((S)-3-((1-(3,5-difluoro-4-((R)-2-(methylsulfonyl)-2,3,4,9-tetrahydro-1H-pyrido[3,4-b]indol-1-yl)phenyl)piperidin-4-yl)methyl)-8-oxo-1,2,3,4,4a,5,8,10-octahydro-9H-pyrazino[1′,2′:4,5][1,4]oxazino[2,3-f]isoindol-9-yl)piperidine-2,6-dione]", "values": [{"measurement": "IC50", "setting": "[2]", "result": "> 5000", "unit": "nM"}]}
{"smiles": "C[C@@H]1Cc2c([nH]c3ccccc23)[C@@H](c2cnc(OC3CC(C(=O)N4CCC(N5Cc6cc7c(cc6C5)C(=O)N(C5CCC(=O)NC5=O)C7=O)CC4)C3)nc2)N1CC(F)F", "note": "(stereo partly drawn) [Compound A18, 6-(1-((1R,3r)-3-((5-((1R,3R)-2-(2,2-difluoroethyl)-3-methyl-2,3,4,9-tetrahydro-1H-pyrido[3,4-b]indol-1-yl)pyrimidin-2-yl)oxy)cyclobutane-1-carbonyl)piperidin-4-yl)-2-(2,6-dioxopiperidin-3-yl)-6,7-dihydropyrrolo[3,4-f]isoindole-1,3(2H,5H)-dione]", "values": [{"measurement": "IC50", "setting": "[2]", "result": "50 to 500", "unit": "nM"}]}
{"smiles": "CS(=O)(=O)N1CCc2c([nH]c3ccccc23)[C@@H]1c1c(F)cc(N2CCC3(CCN(C(=O)CN4Cc5cc6c(cc5C4)C(=O)N(C4CCC(=O)NC4=O)C6=O)CC3)CC2)cc1F", "note": "(stereo partly drawn) [Compound A20, 6-(2-(9-(3,5-difluoro-4-((S)-2-(methylsulfonyl)-2,3,4,9-tetrahydro-1H-pyrido[3,4-b]indol-1-yl)phenyl)-3,9-diazaspiro[5.5]undecan-3-yl)-2-oxoethyl)-2-(2,6-dioxopiperidin-3-yl)-6,7-dihydropyrrolo[3,4-f]isoindole-1,3(2H,5H)-dione]", "values": [{"measurement": "IC50", "setting": "[2]", "result": "> 5000", "unit": "nM"}]}
{"smiles": "CS(=O)(=O)N1CCc2c([nH]c3ccccc23)[C@H]1c1c(F)cc(N2CCC3(CCN(C(=O)CN4Cc5cc6c(cc5C4)C(=O)N(C4CCC(=O)NC4=O)C6=O)CC3)CC2)cc1F", "note": "(stereo partly drawn) [Compound A21, 6-(2-(9-(3,5-difluoro-4-((R)-2-(methylsulfonyl)-2,3,4,9-tetrahydro-1H-pyrido[3,4-b]indol-1-yl)phenyl)-3,9-diazaspiro[5.5]undecan-3-yl)-2-oxoethyl)-2-(2,6-dioxopiperidin-3-yl)-6,7-dihydropyrrolo[3,4-f]isoindole-1,3(2H,5H)-dione]", "values": [{"measurement": "IC50", "setting": "[2]", "result": "> 5000", "unit": "nM"}]}
{"smiles": "C[C@@H]1Cc2c([nH]c3ccccc23)[C@@H](c2ccc(N3CCC4(CC3)CC(CN3CCN5c6ccc7c(c6OC[C@@H]5C3)CN([C@H]3CCC(=O)NC3=O)C7=O)C4)nc2)N1CC(F)F", "note": "[Compound A24, (S)-3-((S)-7-((7-(5-((1R,3R)-2-(2,2-difluoroethyl)-3-methyl-2,3,4,9-tetrahydro-1H-pyrido[3,4-b]indol-1-yl)pyridin-2-yl)-7-azaspiro[3.5]nonan-2-yl)methyl)-1-oxo-1,3,5,5a,6,7,8,9-octahydro-2H-pyrazino[1′,2′:4,5][1,4]oxazino[2,3-e]isoindol-2-yl)piperidine-2,6-dione]", "values": [{"measurement": "DC50", "setting": "[1]", "result": "10 to 100", "unit": "nM"}, {"measurement": "Dmax", "setting": "[1]", "result": "25 to 50", "unit": "%"}, {"measurement": "IC50", "setting": "[2]", "result": "< 50", "unit": "nM"}]}
{"smiles": "C[C@@H]1Cc2c([nH]c3ccccc23)[C@@H](c2cnc(N3CCC4(CC3)CC(CN3CCC5(CC3)COc3cc6c(cc35)CN(C3CCC(=O)NC3=O)C6=O)C4)nc2)N1CC(F)F", "note": "(stereo partly drawn) [Compound A26, 3-(1′-((7-(5-((1R,3R)-2-(2,2-difluoroethyl)-3-methyl-2,3,4,9-tetrahydro-1H-pyrido[3,4-b]indol-1-yl)pyrimidin-2-yl)-7-azaspiro[3.5]nonan-2-yl)methyl)-7-oxo-5,7-dihydro-2H,6H-spiro[furo[2,3-f]isoindole-3,4′-piperidin]-6-yl)piperidine-2,6-dione]", "values": [{"measurement": "IC50", "setting": "[2]", "result": "500 to 5000", "unit": "nM"}]}
{"smiles": "C[C@@H]1Cc2c([nH]c3ccccc23)[C@@H](c2cnc(N3CCN(CC4CCN(c5ccc(N6CCC(=O)NC6=O)cc5)CC4)CC3)nc2)N1CC(F)F", "note": "[Compound A38, 1-(4-(4-((4-(5-((1R,3R)-2-(2,2-difluoroethyl)-3-methyl-2,3,4,9-tetrahydro-1H-pyrido[3,4-b]indol-1-yl)pyrimidin-2-yl)piperazin-1-yl)methyl)piperidin-1-yl)phenyl)dihydropyrimidine-2,4(1H,3H)-dione]", "values": [{"measurement": "DC50", "setting": "[3]", "result": "1 to 10", "unit": "nM"}, {"measurement": "Dmax", "setting": "[3]", "result": "< 25", "unit": "%"}, {"measurement": "IC50", "setting": "[2]", "result": "500 to 5000", "unit": "nM"}]}
{"smiles": "COc1cc(N2CCC(CN3CCC(c4ccc(N[C@H]5CCC(=O)NC5=O)c(F)c4)CC3)CC2)ccc1[C@@H]1c2[nH]c3ccccc3c2C[C@@H](C)N1CC(F)F", "note": "[Compound A40, (S)-3-((4-(1-((1-(4-((1R,3R)-2-(2,2-difluoroethyl)-3-methyl-2,3,4,9-tetrahydro-1H-pyrido[3,4-b]indol-1-yl)-3-methoxyphenyl)piperidin-4-yl)methyl)piperidin-4-yl)-2-fluorophenyl)amino)piperidine-2,6-dione]", "values": [{"measurement": "DC50", "setting": "[3]", "result": "< 1", "unit": "nM"}, {"measurement": "Dmax", "setting": "[3]", "result": "25 to 50", "unit": "%"}, {"measurement": "IC50", "setting": "[2]", "result": "> 5000", "unit": "nM"}]}
{"smiles": "COc1cc(N2CCC(CN3CCN(c4ccc(NC5CCC(=O)NC5=O)c(F)c4)CC3)CC2)ccc1[C@@H]1c2[nH]c3ccccc3c2C[C@@H](C)N1CC(F)F", "note": "(stereo partly drawn) [Compound A41, 3-((4-(4-((1-(4-((1R,3R)-2-(2,2-difluoroethyl)-3-methyl-2,3,4,9-tetrahydro-1H-pyrido[3,4-b]indol-1-yl)-3-methoxyphenyl)piperidin-4-yl)methyl)piperazin-1-yl)-2-fluorophenyl)amino)piperidine-2,6-dione]", "values": [{"measurement": "DC50", "setting": "[3]", "result": "10 to 100", "unit": "nM"}, {"measurement": "Dmax", "setting": "[3]", "result": "25 to 50", "unit": "%"}, {"measurement": "IC50", "setting": "[2]", "result": "500 to 5000", "unit": "nM"}]}
{"smiles": "COc1cc(N2CCC(CN3CCN(c4cnc(C(=O)NC5CCC(=O)NC5=O)cc4OC)CC3)CC2)ccc1[C@@H]1c2[nH]c3ccccc3c2C[C@@H](C)N1CC(F)F", "note": "(stereo partly drawn) [Compound A56, 5-(4-((1-(4-((1R,3R)-2-(2,2-difluoroethyl)-3-methyl-2,3,4,9-tetrahydro-1H-pyrido[3,4-b]indol-1-yl)-3-methoxyphenyl)piperidin-4-yl)methyl)piperazin-1-yl)-N-(2,6-dioxopiperidin-3-yl)-4-methoxypicolinamide]", "values": [{"measurement": "DC50", "setting": "[1]", "result": "< 1", "unit": "nM"}, {"measurement": "Dmax", "setting": "[1]", "result": "50 to 75", "unit": "%"}, {"measurement": "IC50", "setting": "[2]", "result": "> 5000", "unit": "nM"}]}
